Test results taken from ChEMBL document CHEMBL4387706, “Discovery of Novel Spiroindoline Derivatives as Selective Tankyrase Inhibitors” (J Med Chem, 2019).
The source made the active and inactive calls. The calls are words filed in the database; no cut-off is given here.

Tests used:
COLO 320DM = experiment: Antitumor activity against human COLO320DM cells xenografted in mouse assessed as tumor growth inhibition at 150 mg/kg, ip administered twice daily for 11 days relative to control; assay type: functional; settings: 264 h, read-out: TGI
[1] = molecular target: 5-hydroxytryptamine receptor 1A (Homo sapiens) (UniProt P08908); experiment: Displacement of [3H]8-OH-DPAT from full-length recombinant human 5HT1A receptor expressed in CHOK1 cells at 10 uM measured after 60 mins by scintillation counting method relative to control; assay type: cell-based
[2] = molecular target: Tyrosine-protein kinase Lck (Homo sapiens) (UniProt P06239); experiment: Inhibition of full-length recombinant human LCK expressed in insect cells at 10 uM using poly(Glu:Tyr) as substrate preincubated for 15 mins followed by substrate addition and measured after 30 mins in presence of [gamma32P]ATP by scintillation counting method relative to control
[3] = molecular target: Kappa-type opioid receptor (Homo sapiens) (UniProt P41145); experiment: Displacement of [3H]diprenorphine from full-length recombinant human KOR expressed in HEK293 cells at 10 uM measured after 60 mins by scintillation counting method relative to control; assay type: cell-based
[4] = molecular target: 5-hydroxytryptamine receptor 2A (Homo sapiens) (UniProt P28223); experiment: Displacement of [3H]ketanserin from full-length recombinant human 5HT2A receptor expressed in CHOK1 cells at 10 uM measured after 60 mins by scintillation counting method relative to control; assay type: cell-based
[5] = molecular target: Tankyrase 1/2 (Homo sapiens) (UniProt Q9H2K2+O95271); experiment: Inhibition of TNKS/TNKS2-mediated beta-catenin signaling in human COLO320DM cells assessed as down regulation of AXIN2 mRNA expression at 0.033 to 1 uM measured after 48 hrs by RT-PCR analysis; assay type: cell-based
[6] = molecular target: cGMP-inhibited 3',5'-cyclic phosphodiesterase 3A (Homo sapiens) (UniProt Q14432); experiment: Inhibition of full-length recombinant human PDE3A at 10 uM using FAM-cAMP as substrate measured after 30 mins by spectrofluorimetric method relative to control
[7] = molecular target: Cannabinoid receptor 1 (Homo sapiens) (UniProt P21554); experiment: Displacement of [3H]SR141716A from full-length recombinant human CB1 receptor expressed in human Chem1 cells at 10 uM measured after 60 mins by scintillation counting method relative to control; assay type: cell-based
[8] = molecular target: Vasopressin V1a receptor (Homo sapiens) (UniProt P37288); experiment: Displacement of [125I]Phenylacetyl-D-Tyr(Me)-Phe-Gln-Asn-Arg-Pro-Arg-Tyr-NH2 from full-length recombinant human V1A receptor expressed in HEK293 cells at 10 uM measured after 120 mins by scintillation counting method relative to control; assay type: cell-based
[9] = molecular target: Beta-2 adrenergic receptor (Homo sapiens) (UniProt P07550); experiment: Displacement of [3H]CGP-12177 from full-length recombinant human beta2 receptor expressed in CHO cells co-expressing NBR1 at 10 uM measured after 120 mins by scintillation counting method relative to control; assay type: cell-based
[10] = molecular target: Endothelin-1 receptor (Homo sapiens) (UniProt P25101); experiment: Displacement of [125I]Endothelin1 from full-length recombinant human ETA receptor expressed in CHOK1 cells at 10 uM measured after 120 mins by scintillation counting method relative to control; assay type: cell-based
[11] = Toxicity in mouse xenografted with human COLO320DM cells assessed as body weight loss at 300 mg/kg, ip administered twice daily for 11 days; assay type: organism-based; settings: in vivo, 264 h
[12] = molecular target: Adenosine receptor A2a (Homo sapiens) (UniProt P29274); experiment: Displacement of [3H]CGS-21680 from full-length recombinant human A2A receptor expressed in HEK293 cells at 10 uM measured after 90 mins by scintillation counting method relative to control; assay type: cell-based
[13] = molecular target: 5-hydroxytryptamine receptor 1B (Homo sapiens) (UniProt P28222); experiment: Displacement of [3H]GR125743 from full-length recombinant human 5HT1B receptor expressed in human Chem1 cells at 10 uM measured after 90 mins by scintillation counting method relative to control; assay type: cell-based
[14] = molecular target: Glutamate NMDA receptor (Rattus norvegicus) (UniProt P35439+Q00959+Q00960+Q00961+Q62645+Q8VHN2+Q9R1M7); experiment: Displacement of [3H]CGP-39653 from NMDA receptor in Wistar rat cerebral cortex at 10 uM measured after 20 mins by scintillation counting method relative to control
[15] = molecular target: Alpha-2A adrenergic receptor (Homo sapiens) (UniProt P08913); experiment: Displacement of [3H]rauwolscine from full-length recombinant human alpha2A receptor expressed in CHOK1 cells at 10 uM measured after 60 mins by scintillation counting method relative to control; assay type: cell-based
[16] = Permeability of the compound by PAMPA; assay type: ADME; settings: read-out: permeability

Chain of Vasopressin V1a receptor (Homo sapiens) (P37288 whole entry, looked up): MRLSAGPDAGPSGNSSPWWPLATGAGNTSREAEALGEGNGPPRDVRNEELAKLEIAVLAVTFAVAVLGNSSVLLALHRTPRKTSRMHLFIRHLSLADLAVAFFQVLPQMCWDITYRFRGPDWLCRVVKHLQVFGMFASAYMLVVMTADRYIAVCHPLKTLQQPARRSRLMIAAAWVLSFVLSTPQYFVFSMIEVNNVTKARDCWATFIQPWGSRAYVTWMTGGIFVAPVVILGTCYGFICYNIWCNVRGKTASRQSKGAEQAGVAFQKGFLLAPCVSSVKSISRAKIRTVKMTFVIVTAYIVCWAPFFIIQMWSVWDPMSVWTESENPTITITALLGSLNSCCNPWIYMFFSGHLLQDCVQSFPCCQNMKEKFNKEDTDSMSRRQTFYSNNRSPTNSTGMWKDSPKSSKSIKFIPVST
Chain of Tyrosine-protein kinase Lck (Homo sapiens) (P06239 2-509 limits assumed): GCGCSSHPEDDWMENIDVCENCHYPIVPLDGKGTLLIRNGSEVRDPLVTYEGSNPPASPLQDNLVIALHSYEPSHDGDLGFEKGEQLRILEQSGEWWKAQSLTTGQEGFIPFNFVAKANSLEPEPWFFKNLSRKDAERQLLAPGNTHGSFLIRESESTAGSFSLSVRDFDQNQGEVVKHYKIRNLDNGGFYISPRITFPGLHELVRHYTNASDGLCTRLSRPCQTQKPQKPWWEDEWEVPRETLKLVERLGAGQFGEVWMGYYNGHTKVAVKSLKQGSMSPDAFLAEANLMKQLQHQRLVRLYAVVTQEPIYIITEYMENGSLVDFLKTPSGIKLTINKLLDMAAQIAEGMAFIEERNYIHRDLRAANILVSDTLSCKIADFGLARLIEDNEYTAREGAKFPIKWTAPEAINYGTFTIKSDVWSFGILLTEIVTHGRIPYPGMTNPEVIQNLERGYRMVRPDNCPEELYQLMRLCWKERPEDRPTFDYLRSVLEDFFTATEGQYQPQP
Chain of 5-hydroxytryptamine receptor 1B (Homo sapiens) (P28222 whole entry): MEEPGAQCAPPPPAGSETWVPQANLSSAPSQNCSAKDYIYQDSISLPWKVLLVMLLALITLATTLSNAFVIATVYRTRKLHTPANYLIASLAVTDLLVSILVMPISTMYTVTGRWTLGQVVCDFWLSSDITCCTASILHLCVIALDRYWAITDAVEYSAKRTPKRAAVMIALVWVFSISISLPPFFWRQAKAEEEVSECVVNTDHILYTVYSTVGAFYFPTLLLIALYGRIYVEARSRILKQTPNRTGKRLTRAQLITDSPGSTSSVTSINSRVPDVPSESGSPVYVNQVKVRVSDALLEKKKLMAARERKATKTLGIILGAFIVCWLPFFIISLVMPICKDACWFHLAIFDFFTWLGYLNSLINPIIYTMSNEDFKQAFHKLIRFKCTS
Chain of Tankyrase 1/2 (Homo sapiens) (O95271 whole entry, looked up): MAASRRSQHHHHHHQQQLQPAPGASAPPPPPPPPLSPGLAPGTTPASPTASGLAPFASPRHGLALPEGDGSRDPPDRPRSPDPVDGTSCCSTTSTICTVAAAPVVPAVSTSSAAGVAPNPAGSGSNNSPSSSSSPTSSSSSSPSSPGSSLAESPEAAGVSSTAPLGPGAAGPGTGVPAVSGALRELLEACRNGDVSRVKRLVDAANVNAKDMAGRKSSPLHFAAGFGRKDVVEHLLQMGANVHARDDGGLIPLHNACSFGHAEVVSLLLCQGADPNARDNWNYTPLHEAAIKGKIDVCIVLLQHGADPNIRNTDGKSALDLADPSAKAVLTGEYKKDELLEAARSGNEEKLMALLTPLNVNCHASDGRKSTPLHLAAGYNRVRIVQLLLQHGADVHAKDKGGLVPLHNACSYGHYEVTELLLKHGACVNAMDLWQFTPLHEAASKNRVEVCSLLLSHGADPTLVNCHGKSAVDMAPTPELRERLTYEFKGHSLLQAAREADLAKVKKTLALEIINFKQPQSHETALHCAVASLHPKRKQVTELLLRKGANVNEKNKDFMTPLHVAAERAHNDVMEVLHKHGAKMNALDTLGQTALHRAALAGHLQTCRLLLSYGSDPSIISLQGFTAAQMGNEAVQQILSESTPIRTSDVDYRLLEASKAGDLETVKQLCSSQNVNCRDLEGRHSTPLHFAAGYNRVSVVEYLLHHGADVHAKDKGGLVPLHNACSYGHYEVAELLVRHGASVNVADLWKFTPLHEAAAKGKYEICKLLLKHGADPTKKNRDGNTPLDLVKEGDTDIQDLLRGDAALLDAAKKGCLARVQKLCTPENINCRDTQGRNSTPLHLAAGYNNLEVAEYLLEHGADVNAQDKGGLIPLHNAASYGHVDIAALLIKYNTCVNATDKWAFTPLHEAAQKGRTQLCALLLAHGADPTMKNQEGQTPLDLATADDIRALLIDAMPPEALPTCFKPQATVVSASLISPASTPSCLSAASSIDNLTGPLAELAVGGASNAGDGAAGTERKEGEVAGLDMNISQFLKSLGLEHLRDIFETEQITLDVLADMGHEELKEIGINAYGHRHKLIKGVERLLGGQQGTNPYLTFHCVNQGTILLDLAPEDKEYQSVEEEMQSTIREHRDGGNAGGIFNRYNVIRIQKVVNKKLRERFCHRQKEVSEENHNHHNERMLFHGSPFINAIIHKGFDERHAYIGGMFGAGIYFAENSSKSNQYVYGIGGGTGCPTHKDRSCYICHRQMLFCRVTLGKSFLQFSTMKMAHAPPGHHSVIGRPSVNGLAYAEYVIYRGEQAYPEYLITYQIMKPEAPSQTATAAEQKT
Chain of Tankyrase 1/2 (Homo sapiens) (Q9H2K2 whole entry, looked up): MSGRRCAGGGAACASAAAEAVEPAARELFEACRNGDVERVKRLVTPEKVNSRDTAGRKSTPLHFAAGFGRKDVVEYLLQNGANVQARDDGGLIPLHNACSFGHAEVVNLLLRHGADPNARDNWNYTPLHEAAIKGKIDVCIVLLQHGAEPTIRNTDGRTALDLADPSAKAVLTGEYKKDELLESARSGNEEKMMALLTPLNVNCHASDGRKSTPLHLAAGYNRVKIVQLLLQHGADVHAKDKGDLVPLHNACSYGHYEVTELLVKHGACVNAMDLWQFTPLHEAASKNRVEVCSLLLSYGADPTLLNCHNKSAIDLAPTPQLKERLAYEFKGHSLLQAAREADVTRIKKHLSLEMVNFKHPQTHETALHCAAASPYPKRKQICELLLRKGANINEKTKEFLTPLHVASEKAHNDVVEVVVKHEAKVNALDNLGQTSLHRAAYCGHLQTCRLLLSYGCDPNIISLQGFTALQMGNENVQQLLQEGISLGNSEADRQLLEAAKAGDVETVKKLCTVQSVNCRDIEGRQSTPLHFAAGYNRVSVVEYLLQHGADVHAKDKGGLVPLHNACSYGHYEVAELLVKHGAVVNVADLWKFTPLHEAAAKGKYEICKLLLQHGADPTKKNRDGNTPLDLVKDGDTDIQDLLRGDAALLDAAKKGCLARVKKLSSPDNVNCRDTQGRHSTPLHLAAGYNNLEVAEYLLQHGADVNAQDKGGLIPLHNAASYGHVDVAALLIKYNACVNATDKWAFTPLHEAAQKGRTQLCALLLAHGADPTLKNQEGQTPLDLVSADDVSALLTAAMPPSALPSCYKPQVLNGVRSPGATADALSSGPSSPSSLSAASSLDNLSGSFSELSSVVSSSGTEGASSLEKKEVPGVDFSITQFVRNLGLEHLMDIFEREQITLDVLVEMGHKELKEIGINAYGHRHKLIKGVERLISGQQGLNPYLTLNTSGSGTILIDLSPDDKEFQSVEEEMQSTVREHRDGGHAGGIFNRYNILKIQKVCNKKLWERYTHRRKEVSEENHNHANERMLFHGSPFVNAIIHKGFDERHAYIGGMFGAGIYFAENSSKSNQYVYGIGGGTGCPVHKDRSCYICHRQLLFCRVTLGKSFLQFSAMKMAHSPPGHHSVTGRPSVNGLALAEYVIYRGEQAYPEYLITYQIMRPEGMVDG
Chain of Endothelin-1 receptor (Homo sapiens) (P25101 whole entry): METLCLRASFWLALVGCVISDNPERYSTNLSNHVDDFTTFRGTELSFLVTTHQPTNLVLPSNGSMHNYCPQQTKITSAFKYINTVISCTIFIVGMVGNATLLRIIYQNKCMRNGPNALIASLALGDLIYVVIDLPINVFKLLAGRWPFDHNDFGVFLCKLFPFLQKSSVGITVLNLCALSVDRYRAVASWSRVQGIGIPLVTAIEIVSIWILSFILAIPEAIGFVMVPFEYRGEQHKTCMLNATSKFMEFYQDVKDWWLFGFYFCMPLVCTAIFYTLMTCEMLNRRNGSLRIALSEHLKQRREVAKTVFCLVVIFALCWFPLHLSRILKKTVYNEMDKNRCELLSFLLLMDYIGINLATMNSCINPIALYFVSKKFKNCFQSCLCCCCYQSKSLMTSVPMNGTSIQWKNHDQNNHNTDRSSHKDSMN
Chain of Adenosine receptor A2a (Homo sapiens) (P29274 whole entry): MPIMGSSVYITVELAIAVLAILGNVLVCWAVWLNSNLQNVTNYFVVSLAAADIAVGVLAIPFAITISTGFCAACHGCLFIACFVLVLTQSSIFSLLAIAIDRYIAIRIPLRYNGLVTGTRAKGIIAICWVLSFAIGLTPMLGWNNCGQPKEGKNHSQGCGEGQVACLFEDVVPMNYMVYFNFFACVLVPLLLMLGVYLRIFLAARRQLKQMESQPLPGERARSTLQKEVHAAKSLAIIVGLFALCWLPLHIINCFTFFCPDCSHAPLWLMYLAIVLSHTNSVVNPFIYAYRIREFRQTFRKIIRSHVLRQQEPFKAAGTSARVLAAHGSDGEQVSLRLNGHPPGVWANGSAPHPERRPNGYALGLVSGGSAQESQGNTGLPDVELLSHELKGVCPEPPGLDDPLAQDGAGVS
Chain of Kappa-type opioid receptor (Homo sapiens) (P41145 whole entry): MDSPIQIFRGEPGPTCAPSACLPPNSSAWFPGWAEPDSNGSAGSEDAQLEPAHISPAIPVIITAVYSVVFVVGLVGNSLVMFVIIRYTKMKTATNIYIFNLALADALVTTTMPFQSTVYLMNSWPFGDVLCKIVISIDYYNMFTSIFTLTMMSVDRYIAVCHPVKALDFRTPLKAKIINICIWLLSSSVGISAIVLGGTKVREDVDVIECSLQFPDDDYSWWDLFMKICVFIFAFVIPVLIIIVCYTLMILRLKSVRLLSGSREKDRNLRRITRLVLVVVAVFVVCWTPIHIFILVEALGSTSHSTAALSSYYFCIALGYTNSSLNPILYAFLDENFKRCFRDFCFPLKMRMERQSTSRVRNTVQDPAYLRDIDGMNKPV

SMILES: O=c1[nH]c(N2CCC3(CC2)CN(CCO)c2cc(F)cc(F)c23)nc2c1CCCC2
- inhibition in vivo at 150 mg/kg (COLO 320DM): 47.2%
- inhibition [1]: > 20%
- inhibition [2]: > 20%
- inhibition [3]: > 20%
- inhibition [4]: > 20%
- inhibition [5]: Active
- inhibition [6]: > 20%
- inhibition [7]: > 20%
- inhibition [8]: > 20%
- inhibition [9]: > 20%
- inhibition [10]: > 20%
- Activity [11]: Toxic
- inhibition [12]: > 20%
- inhibition [13]: > 20%
- inhibition [14]: > 20%
- inhibition [15]: > 20%

SMILES: COc1ccccc1N1CCN(c2nc3c(c(=O)[nH]2)CCCC3)CC1
- Papp [16]: 0.34 ×10⁻⁶ cm/s
